Assay results from patent US10060935B2, “ApoIII and the treatment and diagnosis of diabetes” (BioCrine AB, priority 2003, dated 2018).
Entries after “also recorded” stand apart in the source; their conditions may differ.

Experiments:
pancreatic β-cells = assay: Measurements of [Ca2+]i (fura-2) in β-cells upon depolarization with 25 mM KCl; type: cell-based, mouse; conditions: for increase in [Ca2+]i / Ca2+ influx upon depolarization: 10 μg/ml, incubation of β-cells, versus vehicle (0.1% TFA) control
Experimental: Preparation of Cells Adult mice from a local colony (3) were starved overnight. Pancreatic islets were isolated by a collagenase technique and cell suspensions were prepared as previously described (4, 5). Cells were seeded onto glass coverslips and cultured at 37° C. in a humidified atmosphere of 5% CO2 in air. • Preparation and Purification of Sera: Sera from T1D patients and control subjects were collected, identically sterile-processed and stored frozen at −20° C. until used. The sera were heat-inactivated by incubation at 56° C. for 30 min. Thereafter β-cells were incubated overnight in RPMI 1640 culture medium with 10% of the sera and changes in [Ca^2+]i were recorded, subsequent to depolarization with 25 mM KCl. The five T1D sera that induced an enhanced [Ca^2+]i response were centrifuged and the supernatant was passed through a […] sterile filter. Samples were loaded on Sep-Pak C18 (Waters, Ma) preconditioned with 0.1% TFA. After a wash with 0.1% TFA, proteins were eluted with 60% acetonitrile in 0.1% TFA and thereafter lyophilized. Batches of one milligram of the lyophilized sample were dissolved in 500 μl 0.1% TFA, centrifuged and injected into a RP-HPLC with a Vydac C18 (0.46×25 cm) column (Grace Vydac, Hesperia, Ca). The separation was made using a linear gradient of 20-60% acetonitrile in 0.1% TFA for 40 min at 1 ml/min. Fractions of 1 ml were collected and lyophilized.
Measurements of [Ca^2+]i Cells, attached to coverslips, were pretreated with the different compounds as described in the results and thereafter incubated in basal medium with 2 μM fura-2AM (Molecular Probes, Eugene, Oreg.) for 30 min. The coverslips were mounted as the bottom of an open chamber and cells were perfused with medium. Fluorescence signals were recorded with a SPEX Fluorolog-2 system connected to an inverted Zeiss Axiovert epifluorescence microscope. The excitation and emission wavelengths were 340/380 and 510 nm, respectively. The results are presented as 340/380 excitation ratios, directly representative of [Ca^2+]i (7).

RINm5F cells = assay: Flow cytometric analysis of cell death (Annexin V / propidium iodide); type: cell-based; conditions: 40 μg/ml apoCIII added to culture medium with 10% control serum, 36 h
Experimental: Quantification of apoCIII Sera were collected and prepared as described above. The relative amounts of apoCIII in T1D serum and control serum, respectively were evaluated by comparisons of the peak area corresponding to apoCIII in the second RP-HPLC. • Flow Cytometric Analysis of Cell Death RINm5F cells were cultured for 36 h in the presence of 10% control serum, control serum and 40 μg/ml apoCIII or T1D serum with or without 100 or 200 μg/ml anti-apoCIII. The whole cell population was collected and stained with EGFP-conjugated Annexin V and propidium iodide (PI) (BD PharMingen) and analyzed on a FACscan using CELLQuest acquisition software (Becton Dickinson, Immunocytometry System). FACS gating, based on forward and side scatter, was used to exclude cellular debris and autofluorescence and typically 10 000 cells were selected for analysis.

[1] = tested on: voltage-gated L-type Ca2+-channel; assay: Perforated-patch whole-cell patch clamp of Ca2+ currents in β-cells; type: cell-based, mouse; conditions: β-cells incubated with 10 μg/ml apoCIII overnight; depolarizations −10 to 10 mV from holding potential −70 mV
Experimental: Patch Clamp Whole-cell Ca^2+ currents were recorded by using the perforated-patch variant of the whole-cell patch-clamp recording technique to eliminate the loss of soluble cytoplasmic components. Electrodes were filled with (in mM): 76 Cs2SO4, 1 MgCl2, 10 KCl, 10 NaCl, and 5 HEPES (pH 7.35), as well as amphotericin B (0.24 mg/ml) to permeabilize the cell membrane and allow low-resistance electrical access without breaking the patch. Pancreatic β-cells were incubated in RPMI 1640 medium with apoCIII (10:g/ml) or vehicle overnight. The cells were bathed in a solution containing (in mM): 138 NaCl, 10 tetraethylammonium chloride, 10 CaCl2, 5.6 KCl, 1.2 MgCl2, 5 HEPES and 3 D-glucose (pH 7.4). Whole-cell currents induced by voltage pulses (from a holding potential of −70 mV to several clamping potentials from −60 to 50 mV in 10 mV increments, 100 ms, 0.5 Hz) were filtered at 1 kHz and recorded. All recordings were made with an Axopatch 200 amplifier (Axon Instruments, Foster City, Calif.) at room temperature (about 22° C.). Acquisition and analysis of data were done using the software program pCLAMP6 (Axon Instruments, Foster City, Calif.).

Ca2+-channel = assay: Immunoblot experiments for direct interaction with the Ca2+-channel; type: binding; conditions: immunoblot (data not shown)

apolipoprotein CIII [apoCIII]
increase in [Ca2+]i / Ca2+ influx upon depolarization (pancreatic β-cells): stimulate Ca^2+ influx | increase in [Ca2+]i / Ca2+ influx upon depolarization (pancreatic β-cells; listed as ApoCIII): increase in [Ca^2+]i | effect on [Ca2+]i (pancreatic β-cells; apoCIII 1, 3 and 6 μg/ml in culture medium): did not see any effects | effect on [Ca2+]i (pancreatic β-cells; apoCIII 10-50 μg/ml in culture medium): responses | cell death (RINm5F cells): increased cell death | cell death (RINm5F cells; listed as ApoCIII): β-cell death | Ca2+-channel currents [1]: larger Ca^2+-channel currents than control cells; also recorded: activation of the voltage-gated L-type Ca^2+-channel | direct interaction with the Ca2+-channel (Ca2+-channel): not revealed a direct interaction
